Experimental findings from patent US20050245529A1 (Boehringer Ingelheim International GmbH, priority 2004, published 2005) are described below.

Molecules are shown by their SMILES.

For this assay, the target named is T1, hMCH-1R (Homo sapiens, UniProt Q99705).
T1 construct: expressed in transfected cells; host or cells: CHO/Galpha 16 cells, stably transfected; membranes used
In words: MCH-1 receptor binding test. The following applies: 125I-MCH binding, membranes from CHO/Galpha 16 cells stably transfected with human hMCH-1R. As for the experimental part: Membranes from CHO/Galpha 16 cells stably transfected with human hMCH-1R are resuspended using a syringe (needle 0.6×25 mm) and diluted in test buffer (50 mM HEPES, 10 mM MgCl2, 2 mM EGTA, pH 7.00; 0.1% bovine serum albumin (protease-free), 0.021% bacitracin, 1 μg/mL aprotinin, 1 μg/mL leupeptin and 1 μM phosphoramidone) to a concentration of 5 to 15 μg/mL. […] After the incubation the reaction is filtered using a cell harvester through 0.5% PEI treated fiberglass filters (GF/B, Unifilter Packard). The membrane-bound radioactivity retained on the filter is then determined after the addition of scintillator substance (Packard Microscint 20) in a measuring device (TopCount of Packard). […] The analysis of the concentration binding curve is carried out on the assumption of one receptor binding site.

T1 sequence (Q99705 whole entry): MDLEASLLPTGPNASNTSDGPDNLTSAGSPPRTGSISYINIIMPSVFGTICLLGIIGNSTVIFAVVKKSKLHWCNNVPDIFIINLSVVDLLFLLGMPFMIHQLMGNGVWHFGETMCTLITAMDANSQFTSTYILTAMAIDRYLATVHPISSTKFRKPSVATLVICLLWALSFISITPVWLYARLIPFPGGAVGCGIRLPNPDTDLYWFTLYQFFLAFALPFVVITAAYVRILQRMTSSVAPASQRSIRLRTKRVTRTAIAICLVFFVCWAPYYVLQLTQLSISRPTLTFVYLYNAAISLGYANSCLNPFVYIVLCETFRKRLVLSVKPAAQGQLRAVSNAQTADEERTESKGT

What is called IC50 is the point on the concentration scale where inhibition reaches its midpoint. Low values mean greater potency in that assay, high ones weaker potency in that assay. As to `NC(=O)C1CCN([C@H]2CCN(c3ccc(C#Cc4ccc(-c5ccc(Cl)cc5)cn4)cn3)C2)CC1` [Example 6.3, (S)-1-(1-{5-[5-(4-chlorophenyl)pyridin-2-ylethynyl]pyridin-2-yl}pyrrolidin-3-yl)piperidin-4-carboxylic acid amide], the IC50 came to 0.0037 µM.
In the case of `CCCN(CC1CC1)[C@H](C)/C=C(\C)c1ccc(C#Cc2ccc(-c3ccc(Cl)cc3)cn2)cc1` [Example 15.5, ((E)-(R)-3-{4-[5-(4-chlorophenyl)pyridin-2-ylethynyl]phenyl}-1-methylbut-2-enyl)cyclopropylmethylpropylamine], the IC50 was 0.025 µM.
